Source: patent US20240246940A1, “HETEROARYL DERIVATIVE COMPOUND AND USE THEREOF” (VORONOI INC., priority 2021, published 2024)

Columns and labels:
[1] = test system: Ba/F3 cells expressing HER2 T862A; experiment: Transduced Ba/F3 cell proliferation inhibitory activity, HER2 T862A; type: cell-based; conditions: Mus musculus, BaF3, 72 hours
Procedure: (§1) For Ba/F3 cells, RPMI-1640 supplemented with 10% FBS and 5 ng/ml IL-3 (R&D Systems) was used. Transduced Ba/F3 cells were cultured by adding 1 μg/ml puromycin (Invitrogen) to the same medium.
(§2) 3000 to 5000 cells were aliquoted into each well of a white clear bottom 96 well plate (Corning) 24 hours before treatment with the compounds of Examples. The compounds of Examples were diluted in dimethyl sulfoxide (three-fold dilution, a total of 12 concentrations) and injected each in an amount of 1 μl to a final concentration of 0.2 nM to 5 μM. For the measurement of living cells, the cells were stored at room temperature for 10 minutes using CellTiter-Glo luminescent cell-viability reagent (Promega) in 72 hours after treatment with the compounds of Examples, and the luminescence intensity thereof was measured using a reader (SynergyNeo, Biotek). Each test was repeated three times. The result values were calculated as a cell growth rate (%) compared to those of the control group. A graph was created using the GraphPad Prism version 8.3.0 program, and GI50 values were calculated.

[2] = test system: SK-BR-3 cells (HER2 overexpressing cell line); experiment: SK-BR-3 cell proliferation inhibitory activity (CellTiter-Glo, 120 hours); type: cell-based; conditions: Homo sapiens
Procedure, shortened: (§3)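 SK-BR-3 and BT-474 cells were plated at 5000/well 48 h ahead, and N-87 (5000) and HaCaT (3000) 24 h ahead. Compounds were tested at 11 DMSO-diluted concentrations: 0.2 nM–10 μM for SK-BR-3/BT-474, […]–5 μM for N-87 and 0.8 nM–45 μM for HaCaT. GI50 came from growth % versus control, in triplicate.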

[3] = test system: Ba/F3 cells expressing EGFR L861Q; experiment: Transduced Ba/F3 cell proliferation inhibitory activity, EGFR L861Q; type: cell-based; conditions: Mus musculus, BaF3, 72 hours
Procedure: as §1, §2

[4] = test system: Ba/F3 cells expressing EGFR WT; experiment: Transduced Ba/F3 cell proliferation inhibitory activity, EGFR WT; type: cell-based; conditions: Mus musculus, BaF3, 72 hours
Procedure: as §1, §2

[5] = test system: BT-474 cells (HER2 overexpressing cell line); experiment: BT-474 cell proliferation inhibitory activity (CellTiter-Glo, 120 hours); type: cell-based; conditions: Homo sapiens
Procedure, shortened: as §3

[6] = test system: Ba/F3 cells expressing HER2 L756S; experiment: Transduced Ba/F3 cell proliferation inhibitory activity, HER2 L756S; type: cell-based; conditions: Mus musculus, BaF3; Ba/F3 HER2 L755S, 72 hours
Procedure: as §1, §2

[7] = test system: Ba/F3 cells expressing EGFR G719A/S768I; experiment: Transduced Ba/F3 cell proliferation inhibitory activity, EGFR G719A/S768I; type: cell-based; conditions: Mus musculus, BaF3, 72 hours
Procedure: as §1, §2

[8] = test system: Ba/F3 cells expressing HER2 T798I; experiment: Transduced Ba/F3 cell proliferation inhibitory activity, HER2 T798I; type: cell-based; conditions: Mus musculus, BaF3, 72 hours
Procedure: as §1, §2

[9] = biological target: T1, EGFR (Homo sapiens, UniProt P00533); experiment: Biochemical kinase assay for EGFR (Reaction Biology Corp), ATP 10 μM, 10-dose IC50
T1 construct: purchased Reaction Biology Corp
T1 sequence (P00533 25-1210): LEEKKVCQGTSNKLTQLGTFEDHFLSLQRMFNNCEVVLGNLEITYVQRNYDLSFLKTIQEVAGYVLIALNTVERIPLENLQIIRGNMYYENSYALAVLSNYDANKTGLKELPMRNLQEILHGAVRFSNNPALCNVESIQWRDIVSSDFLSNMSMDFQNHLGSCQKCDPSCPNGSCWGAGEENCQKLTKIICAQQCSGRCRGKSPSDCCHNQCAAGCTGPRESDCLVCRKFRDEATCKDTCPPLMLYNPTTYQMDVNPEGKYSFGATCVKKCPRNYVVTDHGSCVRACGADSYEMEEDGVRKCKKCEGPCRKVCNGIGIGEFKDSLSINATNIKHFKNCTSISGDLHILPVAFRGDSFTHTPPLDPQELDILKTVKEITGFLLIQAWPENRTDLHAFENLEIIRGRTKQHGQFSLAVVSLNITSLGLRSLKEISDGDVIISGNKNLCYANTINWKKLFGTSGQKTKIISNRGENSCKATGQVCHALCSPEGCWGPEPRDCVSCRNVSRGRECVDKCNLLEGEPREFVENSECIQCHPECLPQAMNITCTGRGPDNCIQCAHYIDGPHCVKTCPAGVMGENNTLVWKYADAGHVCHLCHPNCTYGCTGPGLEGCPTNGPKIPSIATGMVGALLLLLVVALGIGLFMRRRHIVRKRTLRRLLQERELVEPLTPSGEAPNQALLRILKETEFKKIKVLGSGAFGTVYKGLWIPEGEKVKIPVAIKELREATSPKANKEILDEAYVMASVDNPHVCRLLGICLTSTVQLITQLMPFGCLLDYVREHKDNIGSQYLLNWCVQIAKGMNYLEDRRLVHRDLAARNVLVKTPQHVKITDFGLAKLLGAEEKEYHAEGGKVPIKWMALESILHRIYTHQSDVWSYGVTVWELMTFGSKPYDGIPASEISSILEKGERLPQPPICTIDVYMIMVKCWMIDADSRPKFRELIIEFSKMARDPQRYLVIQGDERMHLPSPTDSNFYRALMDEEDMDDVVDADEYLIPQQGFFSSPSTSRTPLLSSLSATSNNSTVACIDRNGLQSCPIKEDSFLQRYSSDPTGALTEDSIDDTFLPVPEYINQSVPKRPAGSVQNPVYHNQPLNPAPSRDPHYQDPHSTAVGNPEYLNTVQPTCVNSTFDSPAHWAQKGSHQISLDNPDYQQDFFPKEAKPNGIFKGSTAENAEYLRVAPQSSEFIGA
Procedure: (§4) Biochemical kinase assays for HER2 and EGFR were performed by Reaction Biology Corp (San Diego, USA).

[10] = test system: Ba/F3 cells expressing HER2 L869R; experiment: Transduced Ba/F3 cell proliferation inhibitory activity, HER2 L869R; type: cell-based; conditions: Mus musculus, BaF3, 72 hours
Procedure: as §1, §2

[11] = test system: Ba/F3 cells expressing HER2 WT; experiment: Transduced Ba/F3 cell proliferation inhibitory activity, HER2 WT; type: cell-based; conditions: Mus musculus, BaF3, 72 hours
Procedure: as §1, §2

[12] = test system: Ba/F3 cells expressing EGFR S768I; experiment: Transduced Ba/F3 cell proliferation inhibitory activity, EGFR S768I; type: cell-based; conditions: Mus musculus, BaF3, 72 hours
Procedure: as §1, §2

[13] = biological target: T2, HER2 (Homo sapiens, UniProt P04626); experiment: Biochemical kinase assay for HER2 (Reaction Biology Corp), ATP 10 μM, 10-dose IC50
T2 construct: purchased Reaction Biology Corp
T2 sequence (P04626 23-1255): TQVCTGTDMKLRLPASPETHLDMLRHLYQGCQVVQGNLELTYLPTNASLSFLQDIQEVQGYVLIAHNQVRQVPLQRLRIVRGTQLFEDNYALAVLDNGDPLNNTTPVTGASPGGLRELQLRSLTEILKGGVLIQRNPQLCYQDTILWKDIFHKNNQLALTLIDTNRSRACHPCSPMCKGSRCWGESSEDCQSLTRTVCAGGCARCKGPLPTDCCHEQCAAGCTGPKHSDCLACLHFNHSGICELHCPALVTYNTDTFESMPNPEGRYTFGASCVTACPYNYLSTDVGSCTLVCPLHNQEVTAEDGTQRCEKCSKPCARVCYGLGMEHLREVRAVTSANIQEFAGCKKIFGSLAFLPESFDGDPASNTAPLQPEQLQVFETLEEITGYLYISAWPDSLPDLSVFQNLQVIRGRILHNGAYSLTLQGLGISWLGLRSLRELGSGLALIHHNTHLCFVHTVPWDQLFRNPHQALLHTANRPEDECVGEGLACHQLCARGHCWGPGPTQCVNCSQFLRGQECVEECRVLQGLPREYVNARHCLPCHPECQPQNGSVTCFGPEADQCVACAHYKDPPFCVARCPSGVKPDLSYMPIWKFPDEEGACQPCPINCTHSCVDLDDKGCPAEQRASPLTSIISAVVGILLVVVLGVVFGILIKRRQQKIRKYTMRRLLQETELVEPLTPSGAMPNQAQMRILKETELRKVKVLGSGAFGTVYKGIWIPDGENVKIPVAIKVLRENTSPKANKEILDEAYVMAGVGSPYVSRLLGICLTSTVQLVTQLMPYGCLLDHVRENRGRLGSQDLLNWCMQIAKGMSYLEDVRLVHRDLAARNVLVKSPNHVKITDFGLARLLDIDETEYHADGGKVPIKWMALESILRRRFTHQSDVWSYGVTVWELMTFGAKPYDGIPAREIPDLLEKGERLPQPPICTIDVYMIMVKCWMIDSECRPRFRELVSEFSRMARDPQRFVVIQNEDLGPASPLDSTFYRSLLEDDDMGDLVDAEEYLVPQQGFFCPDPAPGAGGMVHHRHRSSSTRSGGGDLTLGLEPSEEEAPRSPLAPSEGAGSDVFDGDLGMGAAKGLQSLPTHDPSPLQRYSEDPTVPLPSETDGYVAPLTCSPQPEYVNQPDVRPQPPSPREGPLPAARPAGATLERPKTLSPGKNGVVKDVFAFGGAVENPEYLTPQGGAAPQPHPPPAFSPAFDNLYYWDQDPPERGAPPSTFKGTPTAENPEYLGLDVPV
Procedure: as §4

[14] = test system: N-87 cells (HER2 overexpressing cell line); experiment: N-87 cell proliferation inhibitory activity (CellTiter-Glo, 72 hours); type: cell-based
Procedure, shortened: as §3

[15] = test system: Ba/F3 cells expressing EGFR Del19/T790M; experiment: Transduced Ba/F3 cell proliferation inhibitory activity, EGFR Del19/T790M; type: cell-based; conditions: Mus musculus, BaF3, 72 hours
Procedure: as §1, §2

[16] = test system: HaCaT cells (EGFR expressing cell line); experiment: HaCaT cell proliferation inhibitory activity (CellTiter-Glo, 72 hours); type: cell-based; conditions: Homo sapiens
Procedure, shortened: as §3

[17] = test system: Ba/F3 cells expressing EGFR G719A; experiment: Transduced Ba/F3 cell proliferation inhibitory activity, EGFR G719A; type: cell-based; conditions: Mus musculus, BaF3, 72 hours
Procedure: as §1, §2

**Q.** Which GI50 [1] does the source give for `C=CC(=O)N1CCC(Oc2cc3c(Nc4cc(-c5ccc(F)cc5F)ccc4OC)ncnc3cc2OC)CC1` [Example 68, 1-(4-((4-((2′,4′-difluoro-4-methoxy-[1,1′-biphenyl]-3-yl)amino)-7-methoxy-quinazolin-6-yl)oxy)piperidin-1-yl)prop-2-en-1-one] here?
**A.** Its GI50 is at most 50 nM.

**Q.** What about the GI50 [2] of the same compound?
**A.** The GI50 was at most 150 nM.

**Q.** And the GI50 [3]?
**A.** Its GI50 is at most 50 nM.

**Q.** And the GI50 [4]?
**A.** The GI50 was 50 to 100 nM.

**Q.** What about the GI50 [5] of the same compound?
**A.** The GI50 was at most 150 nM.

**Q.** And the GI50 [6]?
**A.** The GI50 was at most 50 nM.

**Q.** And the GI50 [7]?
**A.** Its GI50 is at most 50 nM.

**Q.** What about the GI50 [8] of the same compound?
**A.** The GI50 was 100 to 500 nM.

**Q.** And the IC50 [9]?
**A.** Its IC50 is at most 50 nM.

**Q.** What about the GI50 [10] of the same compound?
**A.** Its GI50 is at most 50 nM.

**Q.** What about the GI50 [11] of the same compound?
**A.** Its GI50 is at most 50 nM.

**Q.** What about the GI50 [12] of the same compound?
**A.** Its GI50 is 50 to 100 nM.

**Q.** And the IC50 [13]?
**A.** Its IC50 is at most 50 nM.

**Q.** What about the GI50 [14] of the same compound?
**A.** Its GI50 is at most 150 nM.

**Q.** And the GI50 [15]?
**A.** Its GI50 is at most 50 nM.

**Q.** What about the GI50 [16] of the same compound?
**A.** The GI50 was at most 150 nM.

**Q.** What about the GI50 [17] of the same compound?
**A.** Its GI50 is at most 50 nM.

**Q.** What does the source list for `C=CC(=O)N1CCC(Oc2cc3c(Nc4cc(-c5cccs5)ccc4OC)ncnc3cc2OC)CC1` [Example 78, 1-(4-((7-methoxy-4-((2-methoxy-5-(thiophen-2-yl)phenyl)amino)quinazolin-6-yl)oxy)piperidin-1-yl)prop-2-en-1-one]?
**A.** GI50 [2]: ≤ 150 nM; GI50 [8]: ≤ 50 nM; GI50 [10]: ≤ 50 nM

**Q.** What does the source list for `C=CC(=O)N1CCC(Oc2cc3c(Nc4cc(-c5ccco5)ccc4OC)ncnc3cc2OC)CC1` [Example 80, 1-(4-((4-((5-(furan-2-yl)-2-methoxyphenyl)amino)-7-methoxy-quinazolin-6-yl)oxy)piperidin-1-yl)prop-2-en-1-one]?
**A.** GI50 [1]: ≤ 50 nM; GI50 [2]: ≤ 150 nM; GI50 [3]: ≤ 50 nM; GI50 [4]: ≤ 50 nM; GI50 [5]: ≤ 150 nM; GI50 [6]: ≤ 50 nM; GI50 [7]: ≤ 50 nM; GI50 [8]: ≤ 50 nM; GI50 [10]: ≤ 50 nM; GI50 [11]: ≤ 50 nM; GI50 [12]: ≤ 50 nM; IC50 [13]: ≤ 50 nM; GI50 [15]: ≤ 50 nM; GI50 [16]: ≤ 150 nM; GI50 [17]: ≤ 50 nM

**Q.** What does the source list for `C=CC(=O)N1CCC(Oc2cc3c(Nc4cc(-c5ccc(F)cc5F)ccc4OC)ncnc3cc2OC)C(F)C1` (stereo not drawn) [Example 143, 1-(4-((4-((2′,4′-difluoro-4-methoxy-[1,1′-biphenyl]-3-yl)amino)-7-methoxy-quinazolin-6-yl)oxy)-3-fluoropiperidin-1-yl)prop-2-en-1-one]?
**A.** GI50 [1]: ≤ 50 nM; GI50 [2]: ≤ 150 nM; GI50 [5]: ≤ 150 nM; GI50 [6]: ≤ 50 nM; GI50 [10]: ≤ 50 nM; GI50 [14]: ≤ 150 nM; GI50 [16]: ≤ 150 nM

**Q.** Which results are given for `C=CC(=O)N1CCC(Nc2cc3c(Nc4cc(-c5ccco5)ccc4OC)ncnc3cc2OCC)CC1` [Example 300, 1-(4-((7-ethoxy-4-((5-(furan-2-yl)-2-methoxyphenyl)amino)quinazolin-6-yl)amino)piperidin-1-yl)prop-2-en-1-one]?
**A.** GI50 [1]: ≤ 50 nM; GI50 [5]: ≤ 150 nM; GI50 [6]: ≤ 50 nM; GI50 [8]: 100 to 500 nM; GI50 [11]: ≤ 50 nM; GI50 [14]: ≤ 150 nM; GI50 [16]: ≤ 150 nM

**Q.** Which GI50 [5] does the source give for `COc1cc2ncnc(Nc3cc(-c4ccc(F)cc4F)ccc3OC)c2cc1NC(=O)/C(F)=C\[C@H]1CCCN1C` [Example 304, (R,E)-N-(4-((2′,4′-difluoro-4-methoxy-[1,1′-biphenyl]-3-yl)amino)-7-methoxyquinazolin-6-yl)-2-fluoro-3-(1-methylpyrrolidin-2-yl)acrylamide] here?
**A.** The GI50 was at most 150 nM.

**Q.** And the IC50 [9]?
**A.** The IC50 was at most 50 nM.

**Q.** And the IC50 [13]?
**A.** The IC50 was at most 50 nM.

**Q.** What about the GI50 [14] of the same compound?
**A.** Its GI50 is at most 150 nM.

**Q.** What about the GI50 [16] of the same compound?
**A.** The GI50 was at most 150 nM.

**Q.** How did the GI50 [1] turn out when `COc1cc2ncnc(Nc3cc(-c4ccc(F)cc4F)ccc3OC)c2cc1NC(=O)/C=C/[C@H]1CCCN1C` [Example 305, (R,E)-N-(4-((2′,4′-difluoro-4-methoxy-[1,1′-biphenyl]-3-yl)amino)-7-methoxyquinazolin-6-yl)-3-(1-methylpyrrolidin-2-yl)acrylamide] was run?
**A.** Its GI50 is at most 50 nM.

**Q.** What about the GI50 [2] of the same compound?
**A.** The GI50 was at most 150 nM.

**Q.** What about the GI50 [5] of the same compound?
**A.** Its GI50 is at most 150 nM.

**Q.** What about the GI50 [6] of the same compound?
**A.** Its GI50 is at most 50 nM.

**Q.** What about the GI50 [8] of the same compound?
**A.** Its GI50 is at most 50 nM.

**Q.** What about the IC50 [9] of the same compound?
**A.** Its IC50 is at most 50 nM.

**Q.** And the GI50 [11]?
**A.** Its GI50 is at most 50 nM.

**Q.** And the IC50 [13]?
**A.** Its IC50 is at most 50 nM.

**Q.** What about the GI50 [14] of the same compound?
**A.** The GI50 was at most 150 nM.

**Q.** What about the GI50 [16] of the same compound?
**A.** The GI50 was at most 150 nM.

**Q.** Which GI50 [2] does the source give for `COc1cc2ncnc(Nc3cc(-c4ccco4)ccc3OC)c2cc1NC(=O)/C=C/[C@H]1CCCN1C` [Example 306, (R,E)-N-(4-((5-(furan-2-yl)-2-methoxyphenyl)amino)-7-methoxyquinazolin-6-yl)-3-(1-methylpyrrolidin-2-yl)acrylamide] here?
**A.** The GI50 was at most 150 nM.

**Q.** What about the GI50 [4] of the same compound?
**A.** The GI50 was at most 50 nM.

**Q.** And the GI50 [5]?
**A.** The GI50 was at most 150 nM.

**Q.** And the IC50 [9]?
**A.** Its IC50 is at most 50 nM.

**Q.** And the GI50 [12]?
**A.** Its GI50 is at most 50 nM.

**Q.** What about the IC50 [13] of the same compound?
**A.** The IC50 was at most 50 nM.

**Q.** What about the GI50 [14] of the same compound?
**A.** Its GI50 is at most 150 nM.

**Q.** And the GI50 [16]?
**A.** The GI50 was at most 150 nM.

**Q.** Which GI50 [2] does the source give for `COc1cc2ncnc(Nc3cc(-c4ccco4)ccc3OC)c2cc1NC(=O)/C(F)=C\[C@H]1CCCN1C` [Example 307, (R,E)-2-fluoro-N-(4-((5-(furan-2-yl)-2-methoxyphenyl)amino)-7-methoxyquinazolin-6-yl)-3-(1-methylpyrrolidin-2-yl)acrylamide] here?
**A.** Its GI50 is at most 150 nM.

**Q.** And the GI50 [4]?
**A.** Its GI50 is at most 50 nM.

**Q.** What about the GI50 [5] of the same compound?
**A.** Its GI50 is at most 150 nM.

**Q.** And the GI50 [12]?
**A.** Its GI50 is at most 50 nM.

**Q.** And the GI50 [14]?
**A.** Its GI50 is at most 150 nM.

**Q.** What about the GI50 [16] of the same compound?
**A.** The GI50 was at most 150 nM.
